{"source": "patent EP0874242A1", "about": "“Device and apparatus for the simultaneous detection of multiple analytes” (Randox Laboratories Ltd., priority 1997, dated 1998)", "key": {"sulphonamide antibodies [1]": {"system": "sulphonamide antibodies", "experiment": "Multi-sulphonamide competitive immunoassay, antibodies on APTES ceramic substrates with dihydrazide linker, with or without periodate activation", "format": "binding", "procedure": "Multi-sulphonamide standards (200 µl) and a cocktail of sulphonamide horseradish peroxidase conjugates (100 µl) were added to the reaction wells containing the device as appropriate and incubated for 15 minutes at room temperature. The standards contained 5, 10, 50 and 100 ng/ml for each of the 12 sulphonamides.\nThereafter the multi-sulphonamide devices were washed with PBS/PEG buffer to remove excess reagents and 300 µl chemiluminescent substrate [luminol (1.4mM)/urea hydrogen peroxide (9.6mM)] per device was introduced. The devices were imaged using a CCD camera with an exposure time of up to 4 minutes. Standard curves were obtained for each of the 12 individual sulphonamides. Calibration curves for each of the 12 individual sulphonamides are represented graphically in Figure 15. The % B/Bo value plotted on the Y-axis represents the % […] of the zero standard RLU (Relative light unit) value caused by each individual sulphonamide standard (plotted on the X-axis as log10).\nIn a further example, ceramic substrates silanated with APTES were reacted with a dihydrazide linker. Sulphonamide antibodies were treated with sodium periodate to render them reactive towards the hydrazide linker. Control sulphonamide antibodies were simply dialysed against sodium acetate buffer pH 5.5. The RLU results are shown in Tables 4 (not treated) and 5 (treated by periodate method). […] The control antibodies (no periodate activation) gave very poor standard curves when compared to the covalently immobilised sulphonamide antibodies."}, "sulphonamide antibodies [2]": {"system": "sulphonamide antibodies", "experiment": "Multi-sulphonamide competitive immunoassay in microchannels, chemiluminescent CCD detection (Example 3)", "format": "binding", "conditions": "microchannel device, 2 minutes incubation", "procedure": "In contrast to Example 1, a multi-sulphonamide assay has also been conducted using microchannels. The device is illustrated in Figure 11. In this Example, the reagent addition reservoirs 21 are 2 mm x 2 mm, and 300 µm deep (vol. 1.2 µl), the channels 23 are each 5 mm long, 200 µm wide and 100 µm deep (vol. 100 nl), and the reservoir 24 is 1.9 mm x 8.6 mm, and 300 µm deep (vol. 4.9 µl).\nThe chemical modification of the surface was performed as described in Example 1. Antibody was added to each of the channels and incubated for 2 hours at 37°C. The substrates were then blocked and washed as for Example 1.\nA multi-sulphonamide standard (200 µl) and sulphonamide horseradish pexoxidase conjugates (100 µl) were mixed. 1 µl of the resultant reagent was pipetted into each of the reservoirs supplying the antibody-coated channel for each sulphonamide. The standards contained 10 or 100 ng/ml of all the sulphonamides as appropriate.\nThe reagent flowed by capillary action. After incubation for 2 minutes, the substrate was washed 5 times with PBS/PEG and chemiluminescent reagent [luminol (1.4 mM)/urea hydrogen peroxide (9.6 mM)] was added.\nThe devices were imaged using a CCD camera with an exposure time of up to 4 minutes."}, "[3]": {"conditions": "10 ng/ml standard, antibodies treated by periodate method, covalently immobilised (Table 5)"}, "[4]": {"conditions": "10 ng/ml standard, control antibodies not treated with periodate (Table 4)"}, "[5]": {"conditions": "100 ng/ml standard, antibodies treated by periodate method, covalently immobilised (Table 5)"}, "[6]": {"conditions": "100 ng/ml standard, control antibodies not treated with periodate (Table 4)"}}}
{"compound": "Nc1ccc(S(=O)(=O)Nc2ccc(Cl)nn2)cc1", "note": "[Sulphachloropyridazine, sulphachloropyridazine]", "values": [{"measurement": "% B/Bo", "setting": "sulphonamide antibodies [1]; [3]", "result": 30, "unit": "%"}, {"measurement": "% B/Bo", "setting": "sulphonamide antibodies [1]; [4]", "result": 24, "unit": "%"}, {"measurement": "% B/Bo", "setting": "sulphonamide antibodies [1]; [5]", "result": 8, "unit": "%"}]}
{"compound": "COc1cc(NS(=O)(=O)c2ccc(N)cc2)nc(OC)n1", "note": "[Sulphadimethoxine, sulphadimethoxine]", "values": [{"measurement": "% B/Bo", "setting": "sulphonamide antibodies [1]; [3]", "result": 46, "unit": "%"}, {"measurement": "% B/Bo", "setting": "sulphonamide antibodies [1]; [5]", "result": 36, "unit": "%"}, {"measurement": "% B/Bo", "setting": "sulphonamide antibodies [1]; [6]", "result": 97, "unit": "%"}]}
{"compound": "COc1ncnc(NS(=O)(=O)c2ccc(N)cc2)c1OC", "note": "[Sulphadoxine, sulphadoxine]", "values": [{"measurement": "% B/Bo", "setting": "sulphonamide antibodies [1]; [3]", "result": 31, "unit": "%"}, {"measurement": "% B/Bo", "setting": "sulphonamide antibodies [1]; [4]", "result": 51, "unit": "%"}, {"measurement": "% B/Bo", "setting": "sulphonamide antibodies [1]; [5]", "result": 20, "unit": "%"}]}
{"compound": "Cc1ccnc(NS(=O)(=O)c2ccc(N)cc2)n1", "note": "[Sulphamerazine, sulphamerazine]", "values": [{"measurement": "% B/Bo", "setting": "sulphonamide antibodies [2]; 10 ng/ml standard", "result": 40, "unit": "%"}, {"measurement": "% B/Bo", "setting": "sulphonamide antibodies [2]; 100 ng/ml standard", "result": 22, "unit": "%"}, {"measurement": "% B/Bo", "setting": "sulphonamide antibodies [1]; [3]", "result": 43, "unit": "%"}, {"measurement": "% B/Bo", "setting": "sulphonamide antibodies [1]; [4]", "result": 52, "unit": "%"}, {"measurement": "% B/Bo", "setting": "sulphonamide antibodies [1]; [5]", "result": 26, "unit": "%"}, {"measurement": "% B/Bo", "setting": "sulphonamide antibodies [1]; [6]", "result": 56, "unit": "%"}]}
{"compound": "Cc1cc(C)nc(NS(=O)(=O)c2ccc(N)cc2)n1", "note": "[Sulphamethazine, sulphamethazine]", "values": [{"measurement": "% B/Bo", "setting": "sulphonamide antibodies [2]; 10 ng/ml standard", "result": 14, "unit": "%"}, {"measurement": "% B/Bo", "setting": "sulphonamide antibodies [2]; 100 ng/ml standard", "result": 7, "unit": "%"}, {"measurement": "% B/Bo", "setting": "sulphonamide antibodies [1]; [3]", "result": 77, "unit": "%"}, {"measurement": "% B/Bo", "setting": "sulphonamide antibodies [1]; [5]", "result": 61, "unit": "%"}]}
{"compound": "Cc1nnc(NS(=O)(=O)c2ccc(N)cc2)s1", "note": "[Sulphamethizole, sulphamethizole]", "values": [{"measurement": "% B/Bo", "setting": "sulphonamide antibodies [1]; [3]", "result": 33, "unit": "%"}, {"measurement": "% B/Bo", "setting": "sulphonamide antibodies [1]; [4]", "result": 36, "unit": "%"}, {"measurement": "% B/Bo", "setting": "sulphonamide antibodies [1]; [5]", "result": 28, "unit": "%"}]}
{"compound": "COc1ccc(NS(=O)(=O)c2ccc(N)cc2)nn1", "note": "[Sulphamethoxypyridazine, sulphamethoxypyridazine]", "values": [{"measurement": "% B/Bo", "setting": "sulphonamide antibodies [2]; 10 ng/ml standard", "result": 28, "unit": "%"}, {"measurement": "% B/Bo", "setting": "sulphonamide antibodies [2]; 100 ng/ml standard", "result": 15, "unit": "%"}, {"measurement": "% B/Bo", "setting": "sulphonamide antibodies [1]; [3]", "result": 74, "unit": "%"}, {"measurement": "% B/Bo", "setting": "sulphonamide antibodies [1]; [4]", "result": 84, "unit": "%"}, {"measurement": "% B/Bo", "setting": "sulphonamide antibodies [1]; [5]", "result": 40, "unit": "%"}]}
{"compound": "Nc1ccc(S(=O)(=O)Nc2cnc3ccccc3n2)cc1", "note": "[Sulphaquinoxaline, sulphaquinoxaline]", "values": [{"measurement": "% B/Bo", "setting": "sulphonamide antibodies [2]; 10 ng/ml standard", "result": 56, "unit": "%"}, {"measurement": "% B/Bo", "setting": "sulphonamide antibodies [2]; 100 ng/ml standard", "result": 24, "unit": "%"}, {"measurement": "% B/Bo", "setting": "sulphonamide antibodies [1]; [3]", "result": 58, "unit": "%"}, {"measurement": "% B/Bo", "setting": "sulphonamide antibodies [1]; [4]", "result": 79, "unit": "%"}, {"measurement": "% B/Bo", "setting": "sulphonamide antibodies [1]; [5]", "result": 53, "unit": "%"}, {"measurement": "% B/Bo", "setting": "sulphonamide antibodies [1]; [6]", "result": 93, "unit": "%"}]}
{"compound": "Nc1ccc(S(=O)(=O)Nc2nccs2)cc1", "note": "[Sulphathiazole, sulphathiazole]", "values": [{"measurement": "% B/Bo", "setting": "sulphonamide antibodies [1]; [3]", "result": 32, "unit": "%"}, {"measurement": "% B/Bo", "setting": "sulphonamide antibodies [1]; [4]", "result": 28, "unit": "%"}, {"measurement": "% B/Bo", "setting": "sulphonamide antibodies [1]; [5]", "result": 16, "unit": "%"}]}
{"compound": "Cc1noc(NS(=O)(=O)c2ccc(N)cc2)c1C", "note": "[Sulphisoxazole, sulphisoxazole]", "values": [{"measurement": "% B/Bo", "setting": "sulphonamide antibodies [1]; [3]", "result": 27, "unit": "%"}, {"measurement": "% B/Bo", "setting": "sulphonamide antibodies [1]; [4]", "result": 23, "unit": "%"}, {"measurement": "% B/Bo", "setting": "sulphonamide antibodies [1]; [5]", "result": 9, "unit": "%"}]}
